Reference: patent publication US5952301A, “Compositions and methods for enhancing intestinal function” (1149336 Ontario Inc., priority 1996, dated 1999)
Values joined by “and” are separate entries in the source; they are usually repeats but may differ in a detail not shown here. Equal entries are not always repeated.

Tests used:
small intestine [1] = test: Co-administration of GLP-2 with IGF-1 or GH: small intestine mass (Example 2); format: in vivo, mice; conditions: for Small Intestine Mass: s.c. twice daily (GH once daily) for 10 days, sacrifice day 11, GLP-2 peptides 2.5 μg, IGF-1/LRIGF-1 50 μg, GH 25 μg per dose, CD1 female mice; for % Change Relative to PBS Control (small intestine) / Change in Intestine Mass Relative to Control (small intestine): same regimen; for Change in Intestine Mass Relative to Control (small intestine): relative to PBS control
Description: (§1) Forty-eight, six week old female CD1 mice (approx. 25 grams, obtained from Charles River Laboratories) were acclimatized in the animal facility for 1 week prior to the experiment. They were housed in plastic bottom, wire lid cages, maintained on a 12 hr light/dark cycle, and allowed chow and water, ad libitum throughout the study. Four days before starting the treatment the mice were weighed using a Mettler PJ300 scale and randomly allocated to 1 of 12 treatment groups. For the experiment, subcutaneous injections in the right hind quarter were given twice daily in the morning and evening for 10 days. However, Growth Hormone (GH) was administered only once a day in the morning. On day 10, the mice were fasted from 12 noon on. Body weight was also taken on day 5 and day 11.
(§2) The treatment groups consisted of the following peptides and peptide combinations. The amount of peptide received per dose by each animal is marked in beside each entry.
(§3) The peptides were weighed (Mettler AE166 scale), reconstituted and aliquoted on the day prior to the first injection. The injection volume, 0.5 ml, was constant through out the experiment using a 1/2 cc U-100 Insulin Syringe (Becton Dickinson and Company, N.J.). All peptide aliquots, except Protropin (GH), were kept at -20° C. and removed 60 minutes prior to injection to thaw. GH was kept at 4° C.
(§4) Control mice (group 1) received the same volume (0.5 ml) of phosphate buffered saline (PBS-1x-137 mM NaCl, 2.7 mM KCl, 4.3 mM Na2HPO4, pH 7.3). Peptides [rat GLP-2] (5 μg/ml) and human [Gly 2] GLP-2 (5 μg/ml) were reconstituted in PBS. One microliter of 1 N NaOH was required to dissolve [Gly2]hGLP-2 in 1 ml.
(§5) IGF recombinant peptides (IGF-1, Lot #FJF-103;Long R3IGF-1(LRIGF-1), Lot# HJF-A01 GroPep Pty Ltd., Australia) stock solutions were reconstituted in 10 mM HCl at a concentration of 1 mg/ml. To minimize the absorption of the peptide to the plastic surface, RIA Grade Bovine Serum Albumin (BSA) (BioLabs Lot 7943) was added to the PBS working solution (100 μg/ml BSA final concentration). Protropin (Growth hormone) (Lot C9009A2, Genentech Canada Inc., Burlington, ON) stock solution was reconstituted with Bacteriostatic water supplied in the kit. The working solution (50 μg/ml) was diluted in PBS (without BSA). Combination treatments of GH+rat GLP-2 and GH+[Gly 2]hGLP-2 were administered by mixing 0.25 mls of each peptide, which were taken up into the same syringe to maintain a consistent injection volume of 0.5 ml. All other combination treatments (for example, rGLP-2+IGF etc.) were initially made up as separate solutions, mixed together, and frozen down together as aliquots of a single mixture, to be administered as single 0.5 ml injections.
(§6) Mice were sacrificed on day 11. Weight measurements were taken for the heart, kidneys, stomach, small intestine and large intestine. Small intestine length was also measured. Blood was taken via cardiac puncture and the plasma was frozen for future analysis. Tissues were also removed for histological analysis.

large intestine = test: Co-administration of GLP-2 with IGF-1 or GH: large intestine mass (Example 2); format: in vivo, mice; conditions: for Large Intestine Mass: s.c. twice daily (GH once daily) for 10 days, sacrifice day 11, GLP-2 peptides 2.5 μg, IGF-1/LRIGF-1 50 μg, GH 25 μg per dose, CD1 female mice; for % Change Relative to PBS Control (large intestine) / Change in Intestine Mass Relative to Control (large intestine): same regimen; for Change in Intestine Mass Relative to Control (large intestine): relative to PBS control
Description: as §1, §2, §3, §4, §5, §6

small intestine [2] = test: Effect of rat GLP-2 on small intestine weight in mice (Example 1); format: in vivo; conditions: for Small Intestine Weight % body wt / Small Intestine Weight Ave: group average; for Small Intestine Weight % body wt / Small Intestine Weight Ave / Small Intestine Weight Day 10: 41.5 μg peptide per injection s.c. every 12 hours for 10 days, CD1 females; for Small Intestine Weight Day 10: single mice
Experimental: This experiment was designed to investigate the effect of GLP-2 on small intestine growth. Mice were treated with human GLP-1, rat GLP-2, or no peptide, and the mass of the small intestine analyzed.
For this experiment, rat GLP-2 and human GLP-1 (7-36 amide) were custom synthesized by application of the tBoc-based solid phase approach. […] The pH was then readjusted to about 7.0 by addition of an equal volume of IN NaOH […], and the solution volume was then adjusted to 10 mL by addition of distilled water. To prepare the formulation for injection, the 10 mL peptide solution and the 50 mL solution of 16% gelatin were combined with mixing, and aliquots for injection were drawn into a 0.5 mL insulin syringe. The same procedure was used to formulate the GLP-1, with the exception that no acid/base adjustment was necessary given its relative greater solubility in water.
Three groups of six mice (8 week old, CD1 females from Charles River Laboratories) were treated as follows. Each mouse received injections for 10 days. The injections were delivered subcutaneously in a final volume of 16% gelatin, with 0.5 cc injected subcutaneously every 12 hours. Mice treated with GLP-1 or GLP-2 peptide received 41.5 μg of the respective peptide in each injection. Control mice received 0.5 cc of 16% gelatin solution, but no peptide. Mice were fed standard rat chow with free access to food and water, until 12 hours prior to sacrifice, at which time food was withheld, and water only was given. The weight of the small intestine was ascertained by excising the entire intestine, and removing the stomach (proximal end) and appendix/cecum/large intestine (distal end). The remaining small intestine was cleaned with saline to remove feces, and weighed.

| Substance | Small Intestine Mass (small intestine [1]) | Large Intestine Mass (large intestine) [g] | % Change Relative to PBS Control (large intestine) (large intestine) | Change in Intestine Mass Relative to Control (large intestine) (large intestine) [g] | % Change Relative to PBS Control (small intestine) (small intestine [1]) | Change in Intestine Mass Relative to Control (small intestine) (small intestine [1]) [g] | increase in the mass of small intestine relative to control group and GLP-1 group (small intestine [2]; about 2 mg/kg (about 500 nmole/kg) twice daily for 10 days) | Small Intestine Weight % body wt (small intestine [2]) | Small Intestine Weight Ave (small intestine [2]) | Small Intestine Weight Day 10 (small intestine [2]) |
| --- | --- | --- | --- | --- | --- | --- | --- | --- | --- | --- |
| IGF-1: Insulin-Like Growth Factor-1, recombinant peptide, GroPep Pty Ltd. | 1.158 g and 1.517 g | 0.262 | -7% | 0.021 |  |  |  |  |  |  |
| [Gly 2] hGLP-2: Human GLP-2 having Gly substituted for Ala at position 2 (HGDGSFSDEMNTILDNLAARDFINWLIQTKITD; Glucagon-like peptide 2; UniProt P01275 146-178, looked up, variant A2G) | 1.810 g | 0.308 | +9% | 0.025 | +75% | 0.775 |  |  |  |  |
| rat GLP-2: rat Glucagon-like peptide-2, 33 amino acid peptide, custom synthesized by tBoc-based solid phase approach (HADGSFSDEMNTILDNLATRDFINWLIQTKITD; Glucagon-like peptide 2; UniProt P06883 146-178, looked up) | 1.066 g | 0.245 | -13.10% | -0.038 | +3% | 0.031 | statistically significant (p-- 0.05) increase | 8.12 ± .40 % body wt | 2.08 ± .14 gm | 1.8 gm and 2.3 gm and 2.4 gm |
| human GLP-1 (7-36 amide) [reference compound] |  |  |  |  |  |  |  | 5.26 ± .25 % body wt | 1.33 ± .04 gm | 1.4 gm and 1.3 gm and 1.2 gm |
| hGH: Protropin (Growth hormone), Genentech Canada Inc. [reference compound] | 1.230 g | 0.260 | -8% | 0.023 | +19% | 0.195 |  |  |  |  |
